# In patent US20060104907A1, “Biologically potent analogues of the Dmt-Tic pharmacophore and methods of use” (Government of the U.S.A., represented by the Secretary, …, priority 2004, published 2006):
# Structures can show the parent of a compound that is named as a salt. Where two headings read alike, the source gives them in different places.
# Columns and labels:
# δ-opioid receptor [1] = molecular target: T1, δ-opioid receptor (Homo sapiens, UniProt P41143); conditions: δ-opioid antagonist activity, literature; cited from earlier work
# δ-opioid receptor [2] = molecular target: T1, δ-opioid receptor; conditions: cited from earlier work
# δ-opioid receptors [3] = molecular target: T2, δ-opioid receptors (Mus musculus, UniProt P32300); experiment: Functional bioactivity in mouse vas deferens (MVD), electrically-evoked twitch; type: cell-based
# T2 construct: preparations of mouse vas deferens (MVD, containing δ-opioid receptors); from tissue; host or cells: mouse vas deferens
# Protocol: (§1) Preparations of myenteric plexus-longitudinal muscle obtained from male guinea-pig ileum (GPI, enriched in μ-opioid receptors) and preparations of mouse vas deferens (MVD, containing δ-opioid receptors) were used for field stimulation with bipolar rectangular pulses of supramaximal voltage (Melchiorri et al., Eur. J. Pharm., 195: 201-207 (1991)). Agonists were evaluated for their ability to inhibit the electrically-evoked twitch. The biological potency of the compounds was compared with that of the μ-opioid receptor agonist dermorphin in GPI and with that of the δ-opioid receptor agonist deltorphin C in MVD. The results are expressed as the IC50 values obtained from dose-response curves (Prism™, GraphPad). To evaluate antagonistic properties, compounds 2 and 3 were added to the bath and allowed to interact with tissue receptor sites 5 min before adding deltorphin C. The IC50 values (nM) represent the mean of not less than six fresh tissue samples±SE. […] IC50 and pA2 values (nM) are mean ±SE of at least six experiments conducted with fresh tissues.
# δ-opioid receptors [4] = molecular target: T3, δ-opioid receptors (Rattus norvegicus, UniProt P33533); experiment: Competitive receptor binding assay, rat brain synaptosomes (P2 fraction), [3H]DPDPE; conditions: for fold decrease of δ-opioid receptor selectivity: compared to reference 1; for μ/δ (δ-opioid receptor selectivity): ratio Ki μ / Ki δ
# T3 construct: using rat brain synaptosomes (P2 fraction); from tissue; host or cells: rat brain synaptosomes (P2 fraction)
# μ-opioid receptors [5] = experiment: Functional bioactivity in guinea-pig ileum (GPI), electrically-evoked twitch; type: cell-based; conditions: agonist activity, inhibition of electrically-evoked twitch
# Protocol: as §1
# μ-opioid receptors [6] = molecular target: T4, μ-opioid receptors (Rattus norvegicus, UniProt P33535); experiment: Competitive receptor binding assay, rat brain synaptosomes (P2 fraction), [3H]DAMGO
# T4 construct: using rat brain synaptosomes (P2 fraction); from tissue; host or cells: rat brain synaptosomes (P2 fraction)
# mouse δ-opioid receptors = molecular target: T5, mouse δ-opioid receptors (Mus musculus, UniProt P32300); experiment: Confocal microscopic visualization of fluorescent probe binding in NG108-15 cells; type: cell-based; conditions: for blockage of fluorescence of probe 3 bound to δ-opioid receptors: NG108-15 cells preincubated with antagonist (naltrindole 0.2 μM, 5 min) before adding the probe
# T5 construct: NG108-15 (mouse N18 neuroblastoma x rat C6 glioma) cell line, which expresses mouse δ-opioid receptors; endogenous in cells; host or cells: NG108-15 (mouse N18 neuroblastoma x rat C6 glioma)
# Protocol: Visualization of δ-opioid receptor sites with the inventive fluorescent probe was obtained by incubating (15 min at 35° C.) the fluorescent tripeptide 3 (0.2 μM) with the NG108-15 (mouse N18 neuroblastoma x rat C6 glioma) cell line, which expresses mouse δ-opioid receptors. […] Localization and visualization of opioid receptor binding sites were obtained by incubating the fluorescent probe with the NG108-15 cells as shown in the left half of the fluorescent photomicrograph obtained from the confocal scanning laser microscope (FIG. 3).
# [7] = Fluorescence emission spectra and quantum yield; type: physicochemical; conditions: Tris/HCl buffer pH 6.6, excitation 350 nm
# Protocol: Fluorescence emission spectra were recorded on a Jobin Yvon-Spex FluoroMax-2 spectrofluorometer with 1 nm spectral resolution for excitation and emission. A peptide solution at a concentration of 2×10^−5M in Tris-HCl buffer, pH 6.6, was used. The excitation wavelength was 350 nm. Fluorescence quantum yield (φ) was determined relative to quinine sulfate (Fluka) in 1 N H2SO4 (φ=0.546) as a reference (Meech et al., Journal of Photochemistry, 23: 193 (1983)). The quantum yield was calculated according to the following equation: [formula] where the subscripts S and R refer to the sample ns and reference compound, respectively; E is the integrated area under the corrected emission spectrum; A is the absorbance of the solution at the excitation wavelength. Absorbance values were kept below 0.02 to minimise inner filter and self-quenching effects. Since both the sample and the reference were in aqueous solution, the correction for the refractive index (nS/nR)^2 was considered to be of no significant relevance.
# μ-opioid receptors [8] = molecular target: T4, μ-opioid receptors; conditions: rat brain synaptosomes; data taken from Balboni et al., J. Med Chem. 2004; read-out: Receptor affinity Ki^u; cited from earlier work
# δ-opioid receptors [9] = molecular target: T2, δ-opioid receptors; conditions: cited from earlier work
# δ-opioid receptors [10] = molecular target: T3, δ-opioid receptors; conditions: rat brain synaptosomes; data taken from Balboni et al., J. Med Chem. 2004; read-out: Receptor affinity Ki^δ; cited from earlier work
# T5 sequence (P32300 whole entry): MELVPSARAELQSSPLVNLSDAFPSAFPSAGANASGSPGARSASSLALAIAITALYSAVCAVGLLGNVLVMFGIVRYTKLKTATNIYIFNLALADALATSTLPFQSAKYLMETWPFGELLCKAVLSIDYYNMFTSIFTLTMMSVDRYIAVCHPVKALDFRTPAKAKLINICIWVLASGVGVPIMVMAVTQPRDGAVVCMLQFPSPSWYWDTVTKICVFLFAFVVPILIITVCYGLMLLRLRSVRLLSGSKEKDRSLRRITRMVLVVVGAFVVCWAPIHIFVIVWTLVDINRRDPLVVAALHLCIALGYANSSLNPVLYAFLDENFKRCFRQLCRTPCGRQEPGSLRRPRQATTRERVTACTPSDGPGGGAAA
# T2 sequence (P32300 whole entry): as above
# T4 sequence (P33535 whole entry): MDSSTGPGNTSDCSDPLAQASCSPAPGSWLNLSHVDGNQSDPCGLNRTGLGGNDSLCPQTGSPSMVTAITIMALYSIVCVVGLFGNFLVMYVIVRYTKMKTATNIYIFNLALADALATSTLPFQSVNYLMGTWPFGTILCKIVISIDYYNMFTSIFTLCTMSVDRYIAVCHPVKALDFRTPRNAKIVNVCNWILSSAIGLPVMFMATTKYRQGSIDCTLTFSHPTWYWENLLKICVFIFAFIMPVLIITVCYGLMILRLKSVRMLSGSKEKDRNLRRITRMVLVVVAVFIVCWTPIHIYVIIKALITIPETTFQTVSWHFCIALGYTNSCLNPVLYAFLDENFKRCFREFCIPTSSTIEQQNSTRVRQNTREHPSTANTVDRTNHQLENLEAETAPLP
# T1 sequence (P41143 whole entry): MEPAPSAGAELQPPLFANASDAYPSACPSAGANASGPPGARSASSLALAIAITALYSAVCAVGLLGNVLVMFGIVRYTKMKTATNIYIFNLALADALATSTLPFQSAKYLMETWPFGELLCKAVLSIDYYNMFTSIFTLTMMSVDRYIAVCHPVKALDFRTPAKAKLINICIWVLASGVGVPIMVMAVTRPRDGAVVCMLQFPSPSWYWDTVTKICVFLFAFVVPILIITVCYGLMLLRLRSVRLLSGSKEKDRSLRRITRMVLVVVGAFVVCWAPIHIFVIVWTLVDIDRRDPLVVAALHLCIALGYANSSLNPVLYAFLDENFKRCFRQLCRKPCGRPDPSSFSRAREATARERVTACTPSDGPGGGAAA
# T3 sequence (P33533 whole entry): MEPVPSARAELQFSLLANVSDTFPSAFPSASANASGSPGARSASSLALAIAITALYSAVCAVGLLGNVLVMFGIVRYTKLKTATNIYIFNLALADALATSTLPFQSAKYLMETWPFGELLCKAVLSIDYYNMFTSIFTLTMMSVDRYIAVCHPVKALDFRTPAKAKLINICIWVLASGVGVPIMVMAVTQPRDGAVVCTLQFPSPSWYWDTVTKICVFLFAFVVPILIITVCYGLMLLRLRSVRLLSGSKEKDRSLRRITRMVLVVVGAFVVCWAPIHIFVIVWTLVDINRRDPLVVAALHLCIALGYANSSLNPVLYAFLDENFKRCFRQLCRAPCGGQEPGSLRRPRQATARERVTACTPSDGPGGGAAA
compound,measurement,setting,value
"2′,6′-dimethyl-L-tyrosine-1,2,3,4-tetrahydroisoquinoline-3-carboxylic acid [Dmt-Tic]",pA2,δ-opioid receptor [1],8.2
same,Ki^μ/Ki^δ,δ-opioid receptor [2]; literature (Salvadori et al. 1995 and others),"150,780"
"Cc1cc(O)cc(C)c1C[C@H](N)C(=O)N1Cc2ccccc2C[C@H]1C(=O)N[C@@H](CCC(=O)O)C(=O)NCCCCCNC(=S)Nc1ccc(-c2c3ccc(=O)cc-3oc3cc(O)ccc23)c(C(=O)O)c1 (as salt: TFA) [Compound 3, 5-(3-{5-[2-({2-[2-amino-3-(4-hydroxy-2,6-dimethyl-phenyl)-propionyl]-1,2,3,4-tetrahydro-isoquinoline-3-carbonyl}-amino)-4-carboxy-butyrylamino]-pentyl}-thioureido)-2-(6-hydroxy-3-oxo-3H-xanten-9-yl)-benzoic acid]",melting point,,169 to 171 °C
"Cc1cc(O)cc(C)c1C[C@H](N)C(=O)N1Cc2ccccc2C[C@H]1C(=O)N[C@@H](CCC(=O)O)C(=O)NCCCCCN [Compound 2, H-Dmt-Tic-Glu-NH-(CH2)5—NH2]",Kb,δ-opioid receptors [3],1.58 nM
same,MVD activity type,δ-opioid receptors [3]; against [D-Ala2]deltorphin I dose-response curves,competitive antagonist
same,MVD pA2,"δ-opioid receptors [3]; antagonism of deltorphin C, Schild plot",8.8
same,Ki,δ-opioid receptors [4],0.22 ± 0.04 nM
same,fold decrease of δ-opioid receptor selectivity,δ-opioid receptors [4],13 fold
same,fold decrease in affinity for δ-opioid receptors,δ-opioid receptors [4]; compared to reference H-Dmt-Tic-Glu-NH2 (1),3.7 fold
same,μ/δ (δ-opioid receptor selectivity),δ-opioid receptors [4],1700
same,IC50,μ-opioid receptors [5],> 1000 nM
same,Ki,μ-opioid receptors [6],380 ± 65 nM
same,fold increase of μ-opioid receptor affinity,μ-opioid receptors [6]; compared to the reference tripeptide (1),3.6 fold
same,melting point,,163 to 165 °C
"Cc1cc(O)cc(C)c1C[C@H](N)C(=O)N1Cc2ccccc2C[C@H]1C(=O)N[C@@H](CCC(=O)O)C(=O)NCCCCCNC(=S)Nc1ccc(-c2c3ccc(=O)cc-3oc3cc(O)ccc23)c(C(=O)O)c1 [Compound 3, 5-(3-{5-[2-({2-[2-amino-3-(4-hydroxy-2,6-dimethyl-phenyl)-propionyl]-1,2,3,4-tetrahydro-isoquinoline-3-carbonyl}-amino)-4-carboxy-butyrylamino]-pentyl}-thioureido)-2-(6-hydroxy-3-oxo-3H-xanten-9-yl)-benzoic acid]",residual fluorescence after antagonist preincubation,"mouse δ-opioid receptors; NG108-15 cells, competition with δ-opioid receptor antagonists",ca. 10%
same,Ki,δ-opioid receptors [4],0.035 ± 0.01 nM
same,fold more δ-selective than fluorescent naltrindole derivative,δ-opioid receptors [4]; comparator from Korlipara et al. 1997,857 fold
same,fold more δ-selective than fluorescent naltrindole derivative,δ-opioid receptors [4]; comparator from Kshirsagar et al. 1998,115 fold
same,fold decrease of δ-opioid receptor selectivity,δ-opioid receptors [4],5 fold
same,δ-opioid receptor binding affinity (in words),δ-opioid receptors [4]; rat brain synaptosomes,subnanomolar
same,μ/δ (δ-opioid receptor selectivity),δ-opioid receptors [4],"4,370"
same,Ki,μ-opioid receptors [6],152 ± 44 nM
Oc1ccc2c3c1O[C@H]1c4[nH]c5ccccc5c4C[C@@]4(O)[C@@H](C2)N(CC2CC2)CC[C@]314 [naltrindole],blockage of fluorescence of probe 3 bound to δ-opioid receptors,mouse δ-opioid receptors,essentially eliminated the fluorescence
same,blockage of fluorescence of probe 3 bound to δ-opioid receptors,mouse δ-opioid receptors; listed as NTI,considerable blockage of the fluorescence
Ac-Glu-NH(CH2)5—NH—(C═S)—NH-fluorescein,fluorescence emission maximum,[7],515 nm
H-Dmt-Tic-Glu-NH2 [Compound 1],Ki,μ-opioid receptors [8],1360 ± 268 nM
same,MVD activity type,"δ-opioid receptors [9]; Balboni et al., J. Med. Chem. 2004",partial δ-opioid agonist
same,IC50,"δ-opioid receptors [9]; agonist activity, inhibition of electrically-evoked twitch, data taken from Balboni et al. 2004, read-out: MVD (IC50)",2.58 ± 0.8 nM
same,IC50,μ-opioid receptors [5],> 1000 nM
same,Ki,δ-opioid receptors [10],0.06 ± 0.008 nM
H-Tyr-Tic-Phe-(Phe)-OH [TIPP],δ-selectivity,"δ-opioid receptor [2]; Arttamangkul et al., Mol. Pharmacol. 2000","> 20,000"
